{"source": "paper PMC10764862", "about": "“Structural basis and selectivity of sulfatinib binding to FGFR and CSF-1R” (Communications Chemistry, 2024)", "key": {"[1]": {"molecular_target": "T1, FGFR3^V555M (Homo sapiens, UniProt P22607, V555M)", "T1 construct": "FGFR3 (residues 450–758); 6×His (PreScission-cleavable) (N, cleaved yes); made in house; host or cells: E. coli BL21 Rosetta", "T1 sequence (P22607 450-758 V555M)": "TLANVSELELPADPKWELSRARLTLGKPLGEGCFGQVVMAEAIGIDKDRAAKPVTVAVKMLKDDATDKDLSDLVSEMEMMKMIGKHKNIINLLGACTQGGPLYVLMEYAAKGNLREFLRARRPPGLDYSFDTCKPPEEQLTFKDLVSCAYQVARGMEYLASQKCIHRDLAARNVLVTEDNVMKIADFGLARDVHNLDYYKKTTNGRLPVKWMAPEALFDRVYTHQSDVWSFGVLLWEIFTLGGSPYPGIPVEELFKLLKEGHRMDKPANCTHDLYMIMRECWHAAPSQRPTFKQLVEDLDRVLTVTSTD", "test": "Kinase inhibition assay (ADP-Glo), FGFR3 V555M gatekeeper mutant", "format": "biochemical", "protocol": "(§1) FGFRs were prepared as previously described[6],[34],[44],[45]. Briefly, FGFR1 (residues 458–765), FGFR2 (residues 458–768), FGFR3 (residues 450–758) as well as FGFR4 (residues 445–753), and their mutants, FGFR1^C584S, FGFR1^V561M, FGFR2^V564I, FGFR2^V564F and FGFR3^V555M, were cloned into a modified pET28a vector in frame with an N-terminal PreScission-cleavable 6×His tag and expressed in E. coli BL21 Rosetta cells. For crystallization, FGFR1^C584S was co-expressed with untagged YOPH to induce non-phosphorylated proteins. The harvested cell pellets were lysed in a buffer containing 20 mM Tris-HCl, pH 8.0, 500 mM NaCl, 20 mM imidazole and 0.5 mM TCEP, and FGFRs were purified over Ni-NTA resin followed by enzymatic digestion with PreScission for 6×His-tag cleavage and further purified by anion exchange chromatography (GE Healthcare). For crystallization, FGFR1^C584S was further purified by gel filtration chromatography (GE Healthcare). […]\n(§2) The inhibition by sulfatinib was determined by the measurement of kinase activities following the ADP-Glo assay kit (Promega)[6],[44],[45]. […] Following the addition of detection reagent to convert the generated ADP to ATP, the luminescence was detected by a plate reader (Perkin Elmer). Samples were run in triplicate and the IC50 values were calculated by log[Inhibitor] versus kinase activity ratio in GraphPad Prism 8.0."}, "[2]": {"molecular_target": "T2, FGFR3 (Homo sapiens, UniProt P22607)", "T2 construct": "FGFR3 (residues 450–758); 6×His (PreScission-cleavable) (N, cleaved yes); made in house; host or cells: E. coli BL21 Rosetta", "T2 sequence (P22607 450-758)": "as the sequence (P22607 450-758 V555M) above, with M106V counted along it", "test": "Kinase inhibition assay (ADP-Glo), FGFR3", "format": "biochemical", "details": "wild-type kinase domain", "protocol": "as §1, §2"}, "[3]": {"molecular_target": "T3, CSF-1R^T663I (Homo sapiens, UniProt P07333, C667T/C830S/C907T/DEL696-741/T663I)", "T3 sequence (P07333 with tags, fused parts or gaps T663I/C667T/DEL696-741/C830S/C907T)": "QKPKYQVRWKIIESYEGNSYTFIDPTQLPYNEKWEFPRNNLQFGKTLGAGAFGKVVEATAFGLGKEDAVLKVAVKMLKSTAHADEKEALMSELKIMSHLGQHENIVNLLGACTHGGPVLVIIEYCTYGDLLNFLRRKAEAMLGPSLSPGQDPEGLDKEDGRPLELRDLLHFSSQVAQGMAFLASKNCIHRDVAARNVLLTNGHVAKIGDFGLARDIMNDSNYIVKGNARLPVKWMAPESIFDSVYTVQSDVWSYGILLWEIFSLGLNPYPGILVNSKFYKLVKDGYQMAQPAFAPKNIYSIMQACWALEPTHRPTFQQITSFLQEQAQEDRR", "test": "Kinase inhibition assay (ADP-Glo), CSF-1R T663I gatekeeper mutant", "format": "biochemical", "details": "read-out: Kinase inhibitory activity CSF-1R^T663I IC50", "protocol": "(§3) Wild-type CSF-1R (residues 542–919, △696–741, C677T, C830S, C907T) and CSF-1R^T663I carrying an N-terminal 6×His tag was cloned into a pFastBac expression vector, and was expressed in SF9 cells using the Invitrogen Bac-to-Bac Baculovirus Expression System[41]. For crystallization, CSF-1R was co-expressed with N-terminal GST-tagged YOPH to induce non-phosphorylated proteins. The harvested cell pellets were lysed by sonication in lysis buffer consisting of 40 mM K-phosphate, pH 8.0, 200 mM NaCl, 0.5 mM PMSF, and protease inhibitor mixture (EDTA-free, Roche). After centrifugation, the clarified cell lysate was supplemented with 20 mM imidazole, and incubated with Ni-NTA beads (GE Healthcare). The Ni-NTA bead-bound CSF-1R protein was eluted using 25 mM HEPES, pH 7.0, 150 mM NaCl and 200 mM imidazole, and was subsequently supplemented with 10 mM DTT after elution. […]\nas §2"}, "[4]": {"molecular_target": "T4, FGFR2 (Homo sapiens, UniProt P21802)", "T4 construct": "FGFR2 (residues 458–768); 6×His (PreScission-cleavable) (N, cleaved yes); made in house; host or cells: E. coli BL21 Rosetta", "T4 sequence (P21802 458-768)": "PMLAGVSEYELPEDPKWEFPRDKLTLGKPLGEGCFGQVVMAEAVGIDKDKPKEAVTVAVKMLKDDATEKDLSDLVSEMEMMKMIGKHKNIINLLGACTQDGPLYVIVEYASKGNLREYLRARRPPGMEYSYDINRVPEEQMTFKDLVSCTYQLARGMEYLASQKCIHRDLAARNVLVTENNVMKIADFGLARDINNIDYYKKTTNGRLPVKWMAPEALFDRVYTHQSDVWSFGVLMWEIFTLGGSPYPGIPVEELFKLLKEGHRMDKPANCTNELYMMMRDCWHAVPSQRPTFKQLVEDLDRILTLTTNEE", "test": "Kinase inhibition assay (ADP-Glo), FGFR2", "format": "biochemical", "details": "wild-type kinase domain", "protocol": "as §1, §2"}, "[5]": {"molecular_target": "T5, FGFR1^V561M (Homo sapiens, UniProt P11362, V561M)", "T5 construct": "FGFR1 (residues 458–765); 6×His (PreScission-cleavable) (N, cleaved yes); made in house; host or cells: E. coli BL21 Rosetta", "T5 sequence (P11362 458-765 V561M)": "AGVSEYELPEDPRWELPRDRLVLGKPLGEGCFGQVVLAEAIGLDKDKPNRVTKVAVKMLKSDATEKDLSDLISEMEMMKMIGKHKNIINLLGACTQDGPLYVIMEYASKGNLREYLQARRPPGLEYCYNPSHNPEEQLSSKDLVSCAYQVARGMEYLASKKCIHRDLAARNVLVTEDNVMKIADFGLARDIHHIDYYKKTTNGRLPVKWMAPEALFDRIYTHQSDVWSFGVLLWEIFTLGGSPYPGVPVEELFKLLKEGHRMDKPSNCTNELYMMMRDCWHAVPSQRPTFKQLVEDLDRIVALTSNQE", "test": "Kinase inhibition assay (ADP-Glo), FGFR1 V561M gatekeeper mutant", "format": "biochemical", "protocol": "as §1, §2"}, "[6]": {"molecular_target": "T6, FGFR2^V564I (Homo sapiens, UniProt P21802, V564I)", "T6 construct": "FGFR2 (residues 458–768); 6×His (PreScission-cleavable) (N, cleaved yes); made in house; host or cells: E. coli BL21 Rosetta", "T6 sequence (P21802 458-768 V564I)": "as the sequence (P21802 458-768) above, with V107I counted along it", "test": "Kinase inhibition assay (ADP-Glo), FGFR2 V564I gatekeeper mutant", "format": "biochemical", "protocol": "as §1, §2"}, "[7]": {"molecular_target": "T7, FGFR1 (Homo sapiens, UniProt P11362)", "T7 construct": "FGFR1 (residues 458–765); 6×His (PreScission-cleavable) (N, cleaved yes); made in house; host or cells: E. coli BL21 Rosetta", "T7 sequence (P11362 458-765)": "as the sequence (P11362 458-765 V561M) above, with M104V counted along it", "test": "Kinase inhibition assay (ADP-Glo), FGFR1", "format": "biochemical", "details": "wild-type kinase domain", "protocol": "as §1, §2"}, "[8]": {"molecular_target": "T8, CSF-1R (Homo sapiens, UniProt P07333, C667T/C830S/C907T/DEL696-741)", "T8 construct": "Wild-type CSF-1R (residues 542–919, △696–741, C677T, C830S, C907T); 6×His (N); made in house; host or cells: SF9 insect cells (baculovirus)", "T8 sequence (P07333 with tags, fused parts or gaps C667T/DEL696-741/C830S/C907T)": "T3 sequence (P07333 with tags, fused parts or gaps T663I/C667T/DEL696-741/C830S/C907T) with I122T", "test": "Kinase inhibition assay (ADP-Glo), CSF-1R", "format": "biochemical", "details": "wild-type kinase domain", "protocol": "as §3, §2"}, "[9]": {"molecular_target": "T9, FGFR2^V564F (Homo sapiens, UniProt P21802, V564F)", "T9 construct": "FGFR2 (residues 458–768); 6×His (PreScission-cleavable) (N, cleaved yes); made in house; host or cells: E. coli BL21 Rosetta", "T9 sequence (P21802 458-768 V564F)": "as the sequence (P21802 458-768) above, with V107F counted along it", "test": "Kinase inhibition assay (ADP-Glo), FGFR2 V564F gatekeeper mutant", "format": "biochemical", "protocol": "as §1, §2"}, "[10]": {"molecular_target": "T10, FGFR4 (Homo sapiens, UniProt P22455)", "T10 construct": "FGFR4 (residues 445–753); 6×His (PreScission-cleavable) (N, cleaved yes); made in house; host or cells: E. coli BL21 Rosetta", "T10 sequence (P22455 445-753)": "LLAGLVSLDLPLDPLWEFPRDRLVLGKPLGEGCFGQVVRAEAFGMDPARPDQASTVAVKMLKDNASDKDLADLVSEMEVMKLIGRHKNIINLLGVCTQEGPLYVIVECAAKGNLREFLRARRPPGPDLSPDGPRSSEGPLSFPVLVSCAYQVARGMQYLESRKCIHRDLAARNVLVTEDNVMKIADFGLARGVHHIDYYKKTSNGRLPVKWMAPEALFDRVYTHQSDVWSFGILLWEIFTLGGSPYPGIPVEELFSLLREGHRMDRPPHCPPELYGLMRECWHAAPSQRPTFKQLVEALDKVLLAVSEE", "test": "Kinase inhibition assay (ADP-Glo), FGFR4", "format": "biochemical", "protocol": "as §1, §2"}, "[11]": {"test_system": "CSF-1R", "set-up": "method as in PMID 28665128", "details": "cited from earlier work"}, "[12]": {"test_system": "FGFR4", "set-up": "method as in PMID 28665128", "details": "cited from earlier work"}, "[13]": {"test_system": "FGFR3", "set-up": "method as in PMID 28665128", "details": "cited from earlier work"}}, "note": "Numbering of substitutions follows the chain as printed. Where two headings read alike, the source gives them in different places.", "data": [{"compound": "Cc1cc2cc(Oc3ccnc(Nc4cccc(CS(=O)(=O)NCCN(C)C)c4)n3)ccc2[nH]1", "note": "[sulfatinib]", "values": [{"measurement": "IC50", "setting": "[1]; ADP-Glo, read-out: Kinase inhibitory activity FGFR3^V555M IC50", "result": "> 5000", "unit": "nM"}, {"measurement": "IC50", "setting": "[1]; bound stated, read-out: IC50 for FGFR3^V555M", "result": "> 2000", "unit": "nM"}, {"measurement": "IC50", "setting": "[2]", "result": 28, "unit": "nM"}, {"measurement": "IC50", "setting": "[3]", "result": 4, "unit": "nM"}, {"measurement": "IC50", "setting": "[4]", "result": 21, "unit": "nM"}, {"measurement": "IC50", "setting": "[5]; ADP-Glo, read-out: Kinase inhibitory activity FGFR1^V561M IC50", "result": "> 5000", "unit": "nM"}, {"measurement": "IC50", "setting": "[5]; bound stated, read-out: IC50 for FGFR1^V561M", "result": "> 2000", "unit": "nM"}, {"measurement": "IC50", "setting": "[6]; ADP-Glo, read-out: Kinase inhibitory activity FGFR2^V564I IC50", "result": 3490, "unit": "nM"}, {"measurement": "IC50", "setting": "[6]; bound stated, read-out: IC50 for FGFR2^V564I", "result": "> 2000", "unit": "nM"}, {"measurement": "IC50", "setting": "[7]", "result": 34, "unit": "nM"}, {"measurement": "IC50", "setting": "[8]", "result": 5, "unit": "nM"}, {"measurement": "IC50", "setting": "[9]; ADP-Glo, read-out: Kinase inhibitory activity FGFR2^V564F IC50", "result": 2970, "unit": "nM"}, {"measurement": "IC50", "setting": "[9]; bound stated, read-out: IC50 for FGFR2^V564F", "result": "> 2000", "unit": "nM"}, {"measurement": "reduction in efficacy for FGFR4", "setting": "[10]; FGFR4 IC50 compared with FGFR1", "result": "approximately 26 fold"}, {"measurement": "IC50", "setting": "[10]; wild-type kinase domain, ADP-Glo", "result": 889, "unit": "nM"}]}, {"compound": "C=CC(=O)N1CCN(CCCn2c(=O)c(-c3c(Cl)c(OC)cc(OC)c3Cl)cc3cnc(NC)nc32)CC1", "note": "[PRN1371, 8-(3-(4-Acryloylpiperazin-1-yl)propyl)-6-(2,6-dichloro-3,5-dimethoxyphenyl)-2-(methylamino)pyrido[2,3-d]pyrimidin-7(8H)-one]", "values": [{"measurement": "IC50", "setting": "[11]", "result": 8.1, "unit": "nM"}, {"measurement": "IC50", "setting": "[12]", "result": 19.3, "unit": "nM"}, {"measurement": "IC50", "setting": "[13]", "result": "[…]"}]}]}
